Consider two molecules from article PMC10619691, “Effect of cyclic substituents on the anti-cancer activity and DNA interaction of ruthenium(II) bis-phenanthroline dipyridoquinoline” (Frontiers in Molecular Biosciences, 2023).

The nature of data set [1]: partition coefficient (log P), shake-flask method. It is filed as physicochemical. The following applies: phosphate buffered saline (pH 7.4) / 1-octanol. The text has this: The role of lipophilicity in the activity of ruthenium (II) polypyridyl complexes is one that has been extensively reported ([Notaro and Gasser, 2017]). […] Based on this, we carried out a partition coefficient (log P) test using a shake-flask method to determine whether the marginal structural differences between VNK-754, VNK-572, and POW-12A affect their lipophilicity and to examine whether such a difference in lipophilicity confers any advantage to their anti-cancer activity. The log P results, as presented in Table 2, clearly show VNK-572 (0.014) and POW-12A (0.077) to be more lipophilic than VNK-754 (−0.874). […] Thus, along with varied DNA intercalating properties, this explains, in part, why there are appreciable differences in the cytotoxic effects of VNK572 and POW12A compared to VNK-754, even though they are generally similar in structure. For example, VNK-572 with an additional benzene ring can penetrate the bi-lipid-layered cell membrane better and achieve higher cellular and nuclear concentrations than VNK-754, producing a greater anti-tumor effect.
To study the lipophilicity of our complexes, we used the shake-flask method at 25.0 °C ± 0.1°C in line with the previously reported protocol ([Dubey et al., 2017]). Equal volumes of the aqueous phase (phosphate buffered saline, pH 7.4) and the 1-octanol phase were pre-saturated with each other overnight. A known amount of the complexes (respectively) was added to the aqueous phase, ensuring our final concentration was within the range of UV spectroscopic analysis; then, an equal volume of the pre-saturated […] phase was added. Both phases were then mixed in a conical flask and left shaking on a thermostatic shaker at a speed of 100 rpm overnight at room temperature. […] Considering that lipophilic compounds will partition into the octanol phase, the concentration of the complexes left in the aqueous phase was analyzed, respectively, by UV spectroscopy; then, the Log P value was calculated: Logp = Log10 ([solute] un-ionized octanol/[solute] un-ionized water).

The test system of data set [2] is HeLa cervical cancer. Briefly: sulphorhodamine B (SRB) cytotoxicity assay. It is filed as cell-based, human. To be noted: 72 h incubation, mean ± SEM. As for the experimental part: The cytotoxicity profile of the ruthenium complexes […]-572, and POW-12A was assessed in various cancer cell lines, namely, human cervical cancer HeLa, prostate cancer cell line DU145, breast cancer cell line MDAMB231MB231, ovarian cancer cell line A2780, and cisplatin-resistant ovarian cancer cell line A2780-CP70, using the preferred screen of the National Cancer Institute, the sulphorhodamine (SRB) dye assay, and the trypan blue cell viability assay ([Skehan et al., 1990]; [Houghton et al., 2007]; [Strober, 2001]). To determine their selective toxicity profile, these complexes were also tested in a normal prostate cell line (PTN1A). From the similarity in chemical structures of the compounds, we deduced that a structure-activity relationship study will help elucidate key properties involved in the cytotoxic activity of this class of metal complexes. The sulphorhodamine B (SRB) assay was used to evaluate the cytotoxicity of each cancer line after treating them with the metal complexes in line with the previously established protocol ([Skehan et al., 1990]). A cell density of 3 × 10^4 cells/mL was treated with various concentrations (3, 10, 30, 50, and 100 μM) of each ruthenium complex by 1:200 dilutions of stock solutions (in DMSO) in culture media, using DMSO as a control. Then, 100 μL of the cell-drug suspension was added to the respective wells of a 96-well plate and incubated at 37°C for 72 h in a CO2-containing incubator. Following this, the cells were fixed using 25 ul of Carnoy's solution and left in the fridge (4°C) for 1 h. The plates were then rinsed with running water and tapped on paper to remove dead cells. The cells were then stained with 100 μL of sulphorhodamine B dye and left for 30 min, after which the dye was washed off using 1% acetic acid, and the plate was left to dry in the oven (60°C). The stained cells were then treated with 100 μL of Tris base (10 mM, pH 10) to solubilize the dye stain. Finally, the plates were analyzed using an Omega plate reader. Each assay was conducted in triplicate. % Cell response=Average of treated cells / Average of control cells x 100.
Background: In SRB staining, fixed cells bind dye roughly in proportion to their protein.

Data set [3] relates to RF I φX174 supercoiled circular DNA. The experiment in a line: supercoiled DNA unwinding by atomic force microscopy. It is filed as binding. To be noted: AFM; P/D = 14 for POW-12A and VNK-572, P/D = 5 for VNK-754. As for the experimental part: FIGURE 7 AFM height images RF I φX174 on a magnesium-soaked mica surface over an area of 2 µm. Samples with the ruthenium complex had solution mixing ratios of P/D = 14 for POW-12A and VNK-572; and of P/D = 5 VNK-754.
Samples for atomic force microscopy (AFM) were prepared on mica crystals cut into squares of approximately 1 cm^2. These squares were stuck with double-sided tape to a 15-mm diameter metal disc. Before sample preparation, Cellotape was used to remove the top layer of the mica crystal, giving a freshly cleaved surface layer on which the sample is to be deposited. Mica was soaked in a 0.1 M solution of MgCl2 for 5 min and blown dry, and Mg^2+ was used to help DNA (negatively charged) adhere to the negatively charged surface of the mica. For solutions containing DNA and POW-12A or VNK-572, a P/D value of 14 was used. For the solution containing DNA and VNK-754, a P/D value of 5 was used. Then, 2 μL of the solution was pipetted onto the mica surface and left for 10 min until the solvent had evaporated, leaving the DNA adhered to the surface. To remove excess salt, each sample was washed three times with 10 µL nanopure water, drying with nitrogen after each wash. AFM was conducted using a Bruker Multi-mode 2 atomic force microscope operated with a NanoScope V controller. ScanAsyst-AIR AFM tips were purchased from Bruker. Scans were run in tapping mode using ScanAsyst, measuring height, peak force error, and phase. The spring constant was adjusted to the spring constant of the tip, which is 0.4 N m^−1 for ScanAsyst-AIR tips; feedback parameters were set automatically by ScanAsyst Auto. Scans were run over 2 μm^2 areas with 512 lines. Images were prepared using NanoScope analysis software. Raw data were processed using first-order flattening and third-order plane fitting. If the background required smoothening due to large molecules on the surface, first-order flattening with a threshold of Z < 0.05 nm was used to improve the appearance of the background. […]

In data set [4] the test system is HeLa cells. The experiment in a line: cellular localization by confocal fluorescence microscopy. It is filed as cell-based, human. The following applies: 50 μM, 2 h incubation, co-localization with DAPI. As for the experimental part:
This was further confirmed by the co-localization of these complexes with a nuclear counterstain (DAPI) (Figure 2).
Fluorescence microscopy was used to study cellular localization. HeLa cells were seeded on autoclaved coverslips in the 6-well plate and incubated at 37°C for 48 h, after which the culture media were replaced with media containing VNK-572 (50 μM) and VNK-754 (50 μM), respectively, and further incubation was performed for 2 h. Following this, the cells were fixed with Carnoy’s solution and washed twice with PBS thereafter. Finally, the HeLa cells were counterstained with DAPI, and the seeded coverslips were inverted and placed on slides for examination. A Leica confocal microscope was used for the observation of the samples using a magnification of ×63.

Molecules are shown by their SMILES.

As usually defined, the LogP is a log measure of how a compound divides between an organic and an aqueous phase. The IC50 is the concentration at which inhibition is half-maximal. A low value points to inhibition by little substance.

In data set [1], `F[P-](F)(F)(F)(F)F.F[P-](F)(F)(F)(F)F.[Ru+2].c1cnc2c(c1)c1ncc3c(c1c1cccnc12)CCC3.c1cnc2c(c1)ccc1cccnc12.c1cnc2c(c1)ccc1cccnc12` [POW-12A] displayed a LogP of 0.077. The molecule further registered an IC50 in data set [2] of 63 ± 6.35 µM. The “unwinding of supercoiled circular DNA” value in data set [3] is “unwound”. For the same molecule, the cellular localization entry in data set [4] was “penetrate the nucleus”.

In the case of `F[P-](F)(F)(F)(F)F.F[P-](F)(F)(F)(F)F.[Ru+2].c1cnc2c(c1)c1ncc3c(c1c1cccnc12)CCCC3.c1cnc2c(c1)ccc1cccnc12.c1cnc2c(c1)ccc1cccnc12` [VNK-572], the LogP in data set [1] worked out at 0.014. In data set [2], this molecule returned an IC50 of 52 ± 6.35 µM. Further, in data set [3], the “unwinding of supercoiled circular DNA” value is “unwound”. Also, in data set [4], the cellular localization entry was “penetrate the nucleus”.
